The test system of assay [1] is HIF-1α / PHDs in murine colon tissue. Put plainly: rectal gavage of butyrate or IOX2 in antibiotic SCFA-depleted mice. Type of assay: in vivo. Particulars: 1 h, 100 mM butyrate, 1.5 mM IOX2.
In a further assay the test system is HIF1α in T84 cells. Put plainly: HIF1α immunoblot in T84 cells (MBA vs BA). Type of assay: cell-based. Particulars: T84 cells. As for the experimental part:
(A) Structures of butyrate derivatives investigated in initial screen for HIF stabilization. Immunoblot of HIF1a protein levels in Caco-2 cells (B) and T84 cells (C) exposed to veh (HBSS+), […], or 5 mM butyrate derivatives for 6h. (D) Dose response study of HIF1a accumulation in T84 cells treated with decreasing concentrations of MBA and BA for 6 h.
(A) Immunoblots of HIF1a protein over time after exposure of T84 cells to 5 mM BA and MBA. (B) Mesoscale assay of HIF1a protein over time in caco-2 cells treated with 5 mM MBA compared to veh. (C) HIF1a and HIF target (BNIP3) protein in caco-2 cells exposed to veh (HBSS+), […] or 5 mM MBA. Data are presented as mean+S.E.M, *p<0.05, **p<0.01, ***p<0.001.
Endogenous and non-endogenous butyrate derivatives with specifically chosen functional groups at different positions within the small molecule and assess their effects on HIF stabilization (FIG. 21A). To study a small library of butyrate derivatives we employed an electrochemiluminescence based assay to quantify HIF1α levels using the Meso Scale Discovery (HIF1α MSD assay, http://www.mesoscale.com) technology. Similar to the sandwich enzyme-linked immunosorbent assay (ELISA), this technology captures and detects HIF1α protein using two specific antibodies but utilizes electrochemiluminescence-based signal generation and detection. Using lysates from intestinal epithelial cells (IECs) caco-2 and T84 exposed to a physiological relevant concentration of 5 mM butyrate derivatives for 4h, this assay was employed to determine HIF1α protein concentration. A bona-fide and potent PHD2 inhibitor (IOX4) was used to stabilize HIF1α as a positive control. Various butyrate derivatives increased HIF1α relative concentration in both cell lines compared to low signals detected in untreated lysates. […] We decided to focus on this interesting butyrate derivative for further studies.
To elucidate the effectiveness of MBA to stabilize HIF1α over time and possibly shine light on how quickly it can be metabolized in-vitro, time-course studies where performed between BA and MBA, IOX4 was used as a positive control. […] Employing the HIF1α MSD assay, we screened for various timepoints in caco-2 cell lysates exposed to MBA (5 mM). […] BNIP3 is involved in cell survival and is a known HIF1α target that is induced through chemical stabilization of HIF or hypoxia. BNIP3 promoter comprises a functional hypoxia response element (HRE) and can be activated by HIF1α.[5] Parallel to our HIF stabilization time course studies, we wanted to assess the transcriptional activity of the stabilized protein over time.

The test system of another assay is HIF regulated targets. Put plainly: intraperitoneal injection in C57BL/6 mice, HIF regulated targets (EPO, GLUT1). It counts as in vivo. Particulars: IP, BA 73 mg/kg, MBA 80 mg/kg, 24h. On the procedure:
Erythropoietin (EPO) is regulated by HIF stabilization. (A) EPO protein in blood serum was assessed by mesoscale assay (n=6-8). qPCR mRNA expression of HIF target mGLUT1 in kidney (B) and colon tissue (C) (n=3-8). Data analyzed by One-way ANOVA with Tukey for post hoc correction and presented as mean±S.E.M of two independent experiments, *p<0.05, **p<0.01, ***p<0.001, ****p<0.0001 […]
At 24 h, mice were sacrificed followed by exsanguination, extraction of right kidney and distal colon for analysis of HIF stabilization and HIF target gene expression. SHBA induces HIF regulated targets in vivo. Erythropoietin (EPO) is regulated by HIF stabilization. (A) EPO protein in blood serum was assessed by mesoscale assay (n=6-8). (B) qPCR mRNA expression of HIF target mGLUT1 in colon tissue (n=3-4). Data are presented as mean±S.E.M of two independent experiments, *p<0.05, **p<0.01.
A typical physiologic response to hypoxia is the increase in red blood cell production. Naturally, HIF is in charge of this response by regulating cell-type specific gene expression that leads to increased levels of the hormone erythropoietin (EPO).[10] […] We lastly explored the in-vivo effects of MBA in mediating induction of genes tightly regulated by HIF. […] After 24h of treatment, they were sacrificed and quickly exsanguinated to measure EPO levels in serum. […] Furthermore, we studied the induction of GLUT1, another classic HIF target responsible for the transport of various monosaccharides. Kidney and colon tissue were analyzed by real-time PCR to compare BA and MBA head-to-head. […] These findings support the ability of MBA to stabilize HIF in-vivo leading to the induction of classic target genes and transcription of a tightly regulated protein EPO.

Assay [2] concerns HIF-1α in murine enteroids. Put plainly: HIF stabilization in differentiated murine enteroids. It counts as cell-based. Particulars: 10 mM butyrate with or without 1 mM MCPA, 4 h.

With `CCCC(=O)O` [Butyrate, Butyric acid], in assay [1], the “colon tissue 2-OG levels after antibiotics” value is “rescued” and the “mRNA expression of HIF-1α targets Bnip3, Bnip3l, Glu1 after antibiotics” value is “rescued”. In addition, the “HIF1α stabilization over time (immunoblot)” value in the assay on HIF1α in T84 cells (5 mM BA and MBA, IOX4 positive control) was “no longer stabilized at 48h”. Also, in the assay with HIF1α in T84 cells (decreasing concentrations, 6 h), the “dose response of HIF1α accumulation” value is listed as “quickly becomes ineffective”. Moreover, in the assay on HIF regulated targets, the “GLUT1 mRNA in colon tissue” value is “significantly increased in colon tissue” and the “GLUT1 mRNA in kidney” value was “induction of GLUT1 in kidney”. Also, in assay [2], the HIF-1α protein expression result was “increased HIF-1α protein expression” and the “HIF-1α target gene expression” value was “induced expression of HIF-1α target genes”.
